{"source": "patent US7670990B2", "about": "“Fungicidal composition comprising a pyridylethylbenzamide derivative and a compound capable of inhibiting mitosis and cell division” (Bayer Cropscience S.A., priority 2004, dated 2010)", "tested_on": "Erysiphe graminis f. sp. tritici", "experiment": "Efficacy against Erysiphe graminis f. sp. tritici on wheat plants (preventive spray treatment)", "type": "in vivo", "conditions": "Blumeria graminis, single active, wheat sprayed at 1-leaf stage, contaminated after 24 hours, graded 7 to 14 days after contamination vs control plants", "method": "The active ingredients tested are prepared by potter homogenisation in a mixture of acetone/tween/water. This suspension is then diluted with water to obtain the desired active material concentration.\nWheat plants (Audace variety) in starter cups, sown on 50/50 peat soil-pozzolana substrate and grown at 12° C., are treated at the 1-leaf stage (10 cm tall) by spraying with the aqueous suspension described above.\nPlants, used as controls, are treated with an aqueous solution not containing the active material.\nAfter 24 hours, the plants are contaminated by dusting them with Erysiphe graminis f. sp. tritici spores, the dusting being carried out using diseased plants.\nGrading is carried out 7 to 14 days after the contamination, in comparison with the control plants."}
{"smiles": "O=C(NCCc1ncc(C(F)(F)F)cc1Cl)c1ccccc1C(F)(F)F", "note": "[Compound 1, N-{2-[3-chloro-5-(trifluoromethyl)-2-pyridinyl]ethyl}-2-trifluoromethylbenzamide]", "values": [{"measurement": "Emax at 62.5 g/ha", "result": 42, "unit": "%"}, {"measurement": "Emax at 125 g/ha", "result": 63, "unit": "%"}]}
{"smiles": "COC(=O)Nc1nc2ccccc2[nH]1", "note": "[Carbendazim, carbendazim]", "values": [{"measurement": "Emax at 62.5 g/ha", "result": 0, "unit": "%"}, {"measurement": "Emax at 125 g/ha", "result": 16, "unit": "%"}]}
